Measured values taken from publication PMC4268243 (Nuclear medicine and biology, 2014).
Entries after “also recorded” stand apart in the source; their conditions may differ.

What was measured:
[1] = Brain uptake of [18F]FET in nude mice; type: in vivo
[2] = tested on: rat orthotopic brain tumor model; conditions: rat model; cited from earlier work
[3] = tested on: SKOV3 estrogen-positive ovarian adenocarcinoma cells; experiment: Amino acid uptake and inhibition in SKOV3 cells; type: cell-based, human; conditions: SKOV3, 30 minutes incubation
[4] = tested on: MDA MB468 tumor xenograft; experiment: Biodistribution in MDA MB468 tumor-bearing SCID mice; type: in vivo; conditions: listed as (R)-[^18F]MeFAMP 2
[5] = tested on: human A549, DU145, U87, MDA MB468 and SKOV3 tumor cells; experiment: Amino acid uptake and inhibition, summary over the five tumor cell lines; type: cell-based
[6] = tested on: DU145 tumor xenograft; experiment: Biodistribution in DU145 tumor-bearing SCID mice; type: in vivo; conditions: listed as (R)-[^18F]MeFAMP 2
[7] = tested on: SKOV3 tumor xenograft; experiment: Biodistribution in SKOV3 tumor-bearing SCID mice; type: in vivo; conditions: listed as (R)-[^18F]MeFAMP 2
[8] = tested on: U87 glioblastoma cells; experiment: Amino acid uptake and inhibition in U87 cells; type: cell-based, human; conditions: U87, 30 minutes incubation
[9] = tested on: U87 tumor xenograft; experiment: Biodistribution in U87 tumor-bearing SCID mice; type: in vivo; conditions: listed as (R)-[^18F]MeFAMP 2
[10] = tested on: A549 tumor xenograft; experiment: Biodistribution in A549 tumor-bearing SCID mice; type: in vivo; conditions: listed as (R)-[^18F]MeFAMP 2
[11] = tested on: DU145 androgen-independent prostate carcinoma cells; experiment: Amino acid uptake and inhibition in DU145 cells; type: cell-based, human; conditions: DU145, 30 minutes incubation
[12] = tested on: SCID mice xenograft tumor models; type: in vivo; conditions: in most cases, over tumors and time points
[13] = tested on: MDA MB468 estrogen-independent breast carcinoma cells; experiment: Amino acid uptake and inhibition in MDA MB468 cells; type: cell-based, human; conditions: MDA MB468, 30 minutes incubation
[14] = tested on: A549 lung adenocarcinoma cells; experiment: Amino acid uptake and inhibition in A549 cells; type: cell-based, human; conditions: A549, 30 minutes incubation

Q: Which results are given for `N[C@@H](Cc1ccc(OCC[18F])cc1)C(=O)O` [[^18F]FET, O-(2-[^18F]fluoroethyl)-L-tyrosine]?
A: fold higher brain uptake than [18F]1 ([1]; [18F]FET in nude mice vs [18F]1 in SCID mice): 2.5-3.5 fold; fold higher brain uptake than [18F]2 ([1]; [18F]FET in nude mice vs [18F]2 in SCID mice): 7-14 fold

Q: With `NC1(C(=O)O)CC([18F])C1` (stereo not shown) [[^18F]FACBC, [18F]1-amino-3-fluorocyclobutane-1-carboxylic acid, reference compound] as the molecule, how does the brain uptake [2] read?
A: 0.26±0.03 %ID/g

Q: With `CN[C@@](C)(C[18F])C(=O)O` [(R)-[^18F]2] [3-[^18F]fluoro-2-methyl-2-N-(methylamino)propanoic acid] as the molecule, how does the Cell uptake ([3]; 10 mM BCH) read?
A: 4.5±0.7 % ID/5×10^5 cells

Q: What about the Cell uptake ([3]; 10 mM MeAIB) of the same molecule?
A: 0.5±0.2 % ID/5×10^5 cells

Q: What about the Cell uptake ([3]; Control (no inhibitor)) of the same molecule?
A: 3.9±0.6 % ID/5×10^5 cells

Q: And the uptake in pancreas ([4]; 15 min post injection)?
A: 59±3.3 %ID/g

Q: And the uptake in kidney ([4]; 60 min post injection)?
A: 5.9±0.8 %ID/g

Q: And the uptake in spleen ([4]; 120 min post injection)?
A: 6.6±0.8 %ID/g

Q: What about the “inhibition of uptake by BCH” value ([5]; 10 mM BCH, relative to control, most cell lines) of the same molecule?
A: no BCH inhibition was observed in most cases

Q: What about the “inhibition of uptake by MeAIB” value ([5]; 10 mM MeAIB, relative to control, most cell lines) of the same molecule?
A: 50-91%

Q: What about the “uptake in tumor cells” value ([5]; 30 minutes incubation, without inhibitors, range over the cell lines) of the same molecule?
A: 1-7 %ID/5×10^5 cells

Q: And the “amino acid transport system mediating uptake / selectivity” value ([5]; AAT cell inhibition assays with MeAIB and BCH)?
A: high selectivity for system A AAT; also recorded: the most selective for system A transport

Q: What about the uptake in liver ([6]; 15 min post injection) of the same molecule?
A: 7.8±1.2 %ID/g

Q: And the uptake in tumor ([6]; 15 min post injection)?
A: 5.2±1.2 %ID/g

Q: And the uptake in pancreas ([6]; 30 min post injection)?
A: 53±17 %ID/g

Q: What about the uptake in spleen ([6]; 120 min post injection) of the same molecule?
A: 7.4±1.6 %ID/g

Q: What about the uptake in tumor ([7]; 60 min post injection) of the same molecule?
A: 7.5±1.8 %ID/g

Q: And the uptake in spleen ([7]; 120 min post injection)?
A: 6.8±0.6 %ID/g

Q: And the Cell uptake ([8]; 10 mM BCH)?
A: 3.5±0.2 % ID/5×10^5 cells

Q: What about the Cell uptake ([8]; 10 mM MeAIB) of the same molecule?
A: 0.6±0.1 % ID/5×10^5 cells

Q: And the Cell uptake ([8]; Control (no inhibitor))?
A: 2.7±0.3 % ID/5×10^5 cells

Q: And the uptake in pancreas ([9]; 15 min post injection)?
A: 74±11 %ID/g

Q: And the uptake in tumor ([9]; 30 min post injection)?
A: 5.9±1.1 %ID/g

Q: And the uptake in kidney ([9]; 60 min post injection)?
A: 6.8±1.3 %ID/g

Q: And the uptake in liver ([9]; 60 min post injection)?
A: 6.8±1.3 %ID/g

Q: What about the uptake in tumor ([9]; 60 min post injection) of the same molecule?
A: 5.8±0.8 %ID/g

Q: And the uptake in spleen ([9]; 120 min post injection)?
A: 6.1±0.5 %ID/g

Q: And the uptake in tumor ([10]; 15 min post injection)?
A: 5.3±1.9 %ID/g

Q: What about the uptake in liver ([10]; 30 min post injection) of the same molecule?
A: 7.5±1.5 %ID/g

Q: What about the uptake in spleen ([10]; 30 min post injection) of the same molecule?
A: 9.8±1.3 %ID/g

Q: What about the uptake in tumor ([10]; 30 min post injection) of the same molecule?
A: 6.3±1.3 %ID/g

Q: And the uptake in liver ([10]; 60 min post injection)?
A: 5.2±0.3 %ID/g

Q: And the Cell uptake ([11]; 10 mM BCH)?
A: 1.9±0.1 % ID/5×10^5 cells

Q: And the Cell uptake ([11]; 10 mM MeAIB)?
A: 0.4±0.1 % ID/5×10^5 cells

Q: And the Cell uptake ([11]; Control (no inhibitor))?
A: 1.5±0.2 % ID/5×10^5 cells

Q: And the “ratio of tumor to muscle” value [12]?
A: > 4

Q: What about the Cell uptake ([13]; 10 mM BCH) of the same molecule?
A: 1.5±0.2 % ID/5×10^5 cells

Q: And the Cell uptake ([13]; 10 mM MeAIB)?
A: 0.5±0.2 % ID/5×10^5 cells

Q: And the Cell uptake ([13]; Control (no inhibitor))?
A: 1.4±0.1 % ID/5×10^5 cells

Q: And the Cell uptake ([14]; 10 mM BCH)?
A: 3.1±0.1 % ID/5×10^5 cells

Q: What about the Cell uptake ([14]; 10 mM MeAIB) of the same molecule?
A: 0.4±0.04 % ID/5×10^5 cells

Q: What about the Cell uptake ([14]; Control (no inhibitor)) of the same molecule?
A: 2.4±0.2 % ID/5×10^5 cells
